Measured values from patent US5122515A, “Nutrient composition containing dipeptides and method for administering the same” (priority 1990, dated 1992).

What was measured:
[1] = In vitro clearance of tyrosyl-arginine in human whole blood
Experimental: Supplementation of an intravenous nutrition solution with the dipeptide tyrosyl-arginine facilitates the infusion of the poorly soluble amino acid tyrosine. We have initiated the first investigations into the metabolism of exogenous tyrosyl-arginine (TryArg). In vitro clearance of tyrosyl-arginine, and the constituent amino acids arginine and tyrosine was assessed in blood from two healthy normal volunteers on five occasions. Whole blood was incubated with tyrosyl-arginine (initially 547 nmol/ml) at 37°°C. for 40 minutes. Throughout this period samples were taken to determine concentration of the dipeptide and individual amino acids.

[2] = In vivo clearance of tyrosyl-arginine after intravenous bolus in rats; design: species or system Sprague Dawley rats; settings: rat
Experimental: In vivo clearance was assessed in five large (370 g) mature (122 days old) Sprague Dawley rats. The animals were anaesthetised with sodium pentabarbitone and remained anaesthetised during the entire procedure. A large bolus of tyrosyl-arginine (82.1 2.8 μg/g rat, Mean SD) was injected intravenously into a central vein and rapid blood samples (n=11) (total volume=2.0 ml) were obtained through a central venous catheter over 20 minutes. We observed that tyrosyl-arginine was cleared rapidly by rats with an approximate half life of 30 seconds. There was a large and rapid rise in Arg concentration reaching a maximum after 2.5 min and falling to baseline levels after 20 minutes.

Row | SMILES | time over which the concentration, after its rise, fell to baseline [1] [h] | time of fall to baseline levels ([2]; iv) [min] | time to maximum concentration ([2]; iv) [min] | time by which degradation was complete ([1]; human whole blood, 37°C) [h] | half-life at 547 nmol/ml ([1]; human, blood) [min] | concentration in whole blood (mean) ([1]; time 0 min, human whole blood incubated with tyrosyl-arginine (initially 547 nmol/ml) at 37°C) [µM] | concentration in whole blood (mean) ([1]; time 0.5 min, human whole blood incubated with tyrosyl-arginine at 37°C) [µM] | concentration in whole blood (mean) ([1]; time 1.0 min, human whole blood incubated with tyrosyl-arginine at 37°C) [µM] | concentration in whole blood (mean) ([1]; time 2.0 min, human whole blood incubated with tyrosyl-arginine at 37°C) [µM] | concentration in whole blood (mean) ([1]; time 5.0 min, human whole blood incubated with tyrosyl-arginine at 37°C) [µM] | concentration in whole blood (mean) ([1]; time 10.0 min, human whole blood incubated with tyrosyl-arginine at 37°C) [µM] | concentration in whole blood (mean) ([1]; time 20.0 min, human whole blood incubated with tyrosyl-arginine at 37°C) [µM] | concentration in whole blood (mean) ([1]; time 40.0 min, human whole blood incubated with tyrosyl-arginine at 37°C) [µM] | concentration in whole blood (mean) ([1]; time 60.0 min, human whole blood incubated with tyrosyl-arginine at 37°C) [µM] | concentration in whole blood (mean) ([1]; time 120.0 min, human whole blood incubated with tyrosyl-arginine at 37°C) [µM] | half-life ([2]; Sprague Dawley, 82.1 μg/g rat, anaesthetised rats, intravenous bolus of tyrosyl-arginine into a central vein, read-out: approximate half life (in vivo clearance) (converted)) [min]
1 | N=C(N)NCCC[C@H](N)C(=O)O [Arg, arginine] | 2 | 20 | 2.5 | – | – | – | – | – | – | – | – | – | – | – | – | –
2 | N[C@@H](Cc1ccc(O)cc1)C(=O)O [Tyr, tyrosine] | 2 | – | – | – | – | – | – | – | – | – | – | – | – | – | – | –
3 | N=C(N)NCCC[C@H](NC(=O)[C@@H](N)Cc1ccc(O)cc1)C(=O)O [Tyr--Arg, tyrosyl-arginine] | – | – | – | ≤ 2 | 4.2 | 547 | 389.85 | 338.65 | 278.94 | 245.52 | 220.90 | 149.77 | 547.0 | 55.57 | 0 | ~0.5
